Assay results reported in ChEMBL document CHEMBL4373728, “Primaquine derivatives: Modifications of the terminal amino group” (Eur J Med Chem, 2019).
In brackets after ≈: the same amount, converted by molar mass.

What follows are molecules tested on Plasmodium berghei (assay: Antimalarial activity against Plasmodium berghei infected in human Huh7 cells after 1 hr by luciferase reporter gene assay). Conditions: Huh-7, 1 h.
Assay type: functional, organism-based
With `COc1cc(NC(C)CCCNC(=O)/C=C/C(=O)Nc2ccc(C(F)(F)F)cc2)c2ncccc2c1` (centres undefined) the IC50 was 110 to 390 nM. `COc1cc(NC(C)CCCNC(=O)/C=C/C(=O)Nc2cccc(C(F)(F)F)c2)c2ncccc2c1` (centres undefined) was tested, and the IC50 was 110 to 390 nM. `COc1cc(NC(C)CCCNC(=O)/C=C/C(=O)Nc2ccc(F)cc2)c2ncccc2c1` (centres undefined) was tested, and the IC50 was 110 to 390 nM. In the case of `COc1cc(NC(C)CCCNC(=O)/C=C/C(=O)Nc2cccc(Cl)c2)c2ncccc2c1` (centres undefined), the IC50 is reported as 110 to 390 nM. With `COc1cc(NC(C)CCCNC(=O)/C=C/C(=O)Nc2cccc(F)c2)c2ncccc2c1` (centres undefined) the IC50 was 110 to 390 nM. With `COc1cc(NC(C)CCCNC(=O)/C=C/C(=O)Nc2ccc(Cl)cc2)c2ncccc2c1` (centres undefined) the IC50 was 110 to 390 nM. Molecule `COc1cc(NC(C)CCCN)c2ncccc2c1` (centres undefined) [PRIMAQUINE] has an IC50 of 8400 nM.

These molecules were tested on Plasmodium falciparum (assay: Antimalarial activity against erythrocytic stage of Plasmodium falciparum by HRP2 assay). Conditions: not given.
Assay type: functional, organism-based
Molecule `COc1cc(NC(C)CCCNC(=O)/C=C/C(=O)Nc2ccc(C(F)(F)F)cc2)c2ncccc2c1` (centres undefined) has an IC50 of 7.74 to 18.4 µM. Work on `COc1cc(NC(C)CCCNC(=O)/C=C/C(=O)Nc2cccc(C(F)(F)F)c2)c2ncccc2c1` (centres undefined) yielded an IC50 of 7.74 to 18.4 µM. With `COc1cc(NC(C)CCCNC(=O)/C=C/C(=O)Nc2ccc(F)cc2)c2ncccc2c1` (centres undefined) the IC50 was 7.74 to 18.4 µM. For `COc1cc(NC(C)CCCNC(=O)/C=C/C(=O)Nc2cccc(Cl)c2)c2ncccc2c1` (centres undefined), the IC50 was 7.74 to 18.4 µM. In the case of `COc1cc(NC(C)CCCNC(=O)/C=C/C(=O)Nc2cccc(F)c2)c2ncccc2c1` (centres undefined), the IC50 is reported as 7.74 to 18.4 µM. In the case of `COc1cc(NC(C)CCCNC(=O)/C=C/C(=O)Nc2ccc(Cl)cc2)c2ncccc2c1` (centres undefined), the IC50 is reported as 7.74 to 18.4 µM.

Each molecule was assayed on Plasmodium falciparum (assay: Antimalarial activity against chloroquine-sensitive Plasmodium falciparum 3D7 by HRP2 assay). Conditions: not given.
Assay type: functional, organism-based
Work on `COc1cc(NC(C)CCCNC(=O)/C=C/C(=O)Nc2ccc(C(F)(F)F)cc2)c2ncccc2c1` (centres undefined) yielded an IC50 of 7.74 to 18.4 µM. In the case of `COc1cc(NC(C)CCCNC(=O)/C=C/C(=O)Nc2cccc(C(F)(F)F)c2)c2ncccc2c1` (centres undefined), the IC50 is reported as 7.74 to 18.4 µM. `COc1cc(NC(C)CCCNC(=O)/C=C/C(=O)Nc2ccc(F)cc2)c2ncccc2c1` (centres undefined) was tested, and the IC50 was 7.74 to 18.4 µM. `COc1cc(NC(C)CCCNC(=O)/C=C/C(=O)Nc2cccc(Cl)c2)c2ncccc2c1` (centres undefined) gave an IC50 of 7.74 to 18.4 µM. For `COc1cc(NC(C)CCCNC(=O)/C=C/C(=O)Nc2cccc(F)c2)c2ncccc2c1` (centres undefined), the IC50 was 7.74 to 18.4 µM. In the case of `COc1cc(NC(C)CCCNC(=O)/C=C/C(=O)Nc2ccc(Cl)cc2)c2ncccc2c1` (centres undefined), the IC50 is reported as 7.74 to 18.4 µM.

Each molecule was assayed on Plasmodium falciparum (assay: Antimalarial activity against Plasmodium falciparum Dd2 by HRP2 assay). Conditions: not given.
Assay type: functional, organism-based
With `COc1cc(NC(C)CCCNC(=O)/C=C/C(=O)Nc2ccc(C(F)(F)F)cc2)c2ncccc2c1` (centres undefined) the IC50 was 7.74 to 18.4 µM. Work on `COc1cc(NC(C)CCCNC(=O)/C=C/C(=O)Nc2cccc(C(F)(F)F)c2)c2ncccc2c1` (centres undefined) yielded an IC50 of 7.74 to 18.4 µM. `COc1cc(NC(C)CCCNC(=O)/C=C/C(=O)Nc2ccc(F)cc2)c2ncccc2c1` (centres undefined) was tested, and the IC50 was 7.74 to 18.4 µM. `COc1cc(NC(C)CCCNC(=O)/C=C/C(=O)Nc2cccc(Cl)c2)c2ncccc2c1` (centres undefined) was tested, and the IC50 was 7.74 to 18.4 µM. `COc1cc(NC(C)CCCNC(=O)/C=C/C(=O)Nc2cccc(F)c2)c2ncccc2c1` (centres undefined) gave an IC50 of 7.74 to 18.4 µM. Work on `COc1cc(NC(C)CCCNC(=O)/C=C/C(=O)Nc2ccc(Cl)cc2)c2ncccc2c1` (centres undefined) yielded an IC50 of 7.74 to 18.4 µM.

Each molecule was assayed on Escherichia coli (assay: Anti-biofilm activity against Escherichia coli). Conditions: not given.
Assay type: functional
In the case of `COc1cc(NC(C)CCCNC(=O)NC(C(=O)NC(c2ccccc2)c2ccccc2)c2ccc(Cl)cc2)c2ncccc2c1` (centres undefined), the MBEC is reported as 6.25 to 50 µg/mL. Work on `COc1cc(NC(C)CCCNC(=O)NC(C(=O)NC(c2ccccc2)c2ccc(Cl)cc2)c2ccccc2)c2ncccc2c1` (centres undefined) yielded an MBEC of 6.25 to 50 µg/mL.

The molecules below were run on Staphylococcus aureus (assay: Anti-biofilm activity against Staphylococcus aureus 630 after 24 hrs in aerobic condition by broth microdilution assay). Conditions: not given.
Assay type: functional
`COc1cc(NC(C)CCCNC(=O)/C=C/C(=O)Nc2ccc(F)cc2)c2ncccc2c1` (centres undefined) gave an MBEC of 6.3 µg/mL. Work on `COc1cc(NC(C)CCCNC(=O)/C=C/C(=O)Nc2cccc(F)c2)c2ncccc2c1` (centres undefined) yielded an MBEC of 6.3 µg/mL.

The molecules below were run on Staphylococcus aureus (assay: Anti-biofilm activity against Staphylococcus aureus 3202 after 24 hrs in aerobic condition by broth microdilution assay). Conditions: not given.
Assay type: functional
In the case of `COc1cc(NC(C)CCCNC(=O)/C=C/C(=O)Nc2ccc(F)cc2)c2ncccc2c1` (centres undefined), the MBEC is reported as 6.3 µg/mL. `COc1cc(NC(C)CCCNC(=O)/C=C/C(=O)Nc2cccc(F)c2)c2ncccc2c1` (centres undefined) was tested, and the MBEC was 6.3 µg/mL.

What follows are molecules tested on Human coronavirus 229E (assay: Antiviral activity against Human coronavirus 229E). Conditions: not given.
Assay type: functional, organism-based
`COc1cc(NC(C)CCCNC(=O)NNC(=O)/C=C/c2cccc(C(F)(F)F)c2)c2ncccc2c1` (centres undefined) showed an EC50 of 7.9 to 15 µM. For `COc1cc(NC(C)CCCNC(=O)NNC(=O)/C(C)=C/c2ccccc2)c2ncccc2c1` (centres undefined), the EC50 was 7.9 to 15 µM. With `COc1cc(NC(C)CCCNC(=O)NNC(=O)/C=C/c2cc(C(F)(F)F)cc(C(F)(F)F)c2)c2ncccc2c1` (centres undefined) the EC50 was 7.9 to 15 µM. In the case of `COc1cc(NC(C)CCCNC(=O)NNC(=O)/C=C/c2ccc3c(c2)OCO3)c2ncccc2c1` (centres undefined), the EC50 is reported as 7.9 to 15 µM. For `COc1cc(NC(C)CCCNC(=O)NNC(=O)/C=C/c2ccc(C(F)(F)F)cc2)c2ncccc2c1` (centres undefined), the EC50 was 7.9 to 15 µM.

Each molecule was assayed on Mammalian orthoreovirus 1 (assay: Antiviral activity against Reovirus-1). Conditions: not given.
Assay type: functional, organism-based
With `COc1cc(NC(C)CCCNC(=O)/C=C/C(=O)Nc2cccc(C(F)(F)F)c2)c2ncccc2c1` (centres undefined) the EC50 was 3.1 to 5.5 µM. With `COc1cc(NC(C)CCCNC(=O)/C=C/C(=O)Nc2cccc(Cl)c2)c2ncccc2c1` (centres undefined) the EC50 was 3.1 to 5.5 µM.

Each molecule was assayed on Sindbis virus (assay: Antiviral activity against Sindbis virus). Conditions: not given.
Assay type: functional, organism-based
Molecule `COc1cc(NC(C)CCCNC(=O)/C=C/C(=O)Nc2cccc(C(F)(F)F)c2)c2ncccc2c1` (centres undefined) has an EC50 of 3.1 to 5.5 µM. `COc1cc(NC(C)CCCNC(=O)/C=C/C(=O)Nc2cccc(Cl)c2)c2ncccc2c1` (centres undefined) was tested, and the EC50 was 3.1 to 5.5 µM.

These molecules were tested on Punta Toro virus (assay: Antiviral activity against Punta Toro virus). Conditions: not given.
Assay type: functional, organism-based
`COc1cc(NC(C)CCCNC(=O)/C=C/C(=O)Nc2cccc(C(F)(F)F)c2)c2ncccc2c1` (centres undefined) gave an EC50 of 3.1 to 5.5 µM. With `COc1cc(NC(C)CCCNC(=O)/C=C/C(=O)Nc2cccc(Cl)c2)c2ncccc2c1` (centres undefined) the EC50 was 3.1 to 5.5 µM.

These molecules were tested on Coxsackievirus B4 (assay: Antiviral activity against Coxsackievirus B4). Conditions: Enterovirus B.
Assay type: functional, organism-based
`COc1cc(NC(C)CCCNC(=O)/C=C/C(=O)Nc2cccc(C(F)(F)F)c2)c2ncccc2c1` (centres undefined) showed an EC50 of 3.1 µM.

What follows are molecules tested on Escherichia coli (assay: Antimicrobial activity against Escherichia coli). Conditions: not given.
Assay type: functional
With `COc1cc(NC(C)CCCNC(=O)NC(C(=O)NC(c2ccccc2)c2ccccc2)c2ccc(Cl)cc2)c2ncccc2c1` (centres undefined) the MIC was 25 µg/mL (≈ 39.3 µM). Molecule `COc1cc(NC(C)CCCNC(=O)NC(C(=O)NC(c2ccccc2)c2ccc(Cl)cc2)c2ccccc2)c2ncccc2c1` (centres undefined) has an MIC of 25 µg/mL (≈ 39.3 µM).

The molecules below were run on Pseudomonas aeruginosa (assay: Antimicrobial activity against Pseudomonas aeruginosa). Conditions: not given.
Assay type: functional
Work on `COc1cc(NC(C)CCCNC(=O)NC(C(=O)NC(c2ccccc2)c2ccccc2)c2ccc(Cl)cc2)c2ncccc2c1` (centres undefined) yielded an MIC of 25 µg/mL (≈ 39.3 µM). With `COc1cc(NC(C)CCCNC(=O)NC(C(=O)NC(c2ccccc2)c2ccc(Cl)cc2)c2ccccc2)c2ncccc2c1` (centres undefined) the MIC was 25 µg/mL (≈ 39.3 µM).

These molecules were tested on Staphylococcus aureus (assay: Antimicrobial activity against Staphylococcus aureus). Conditions: not given.
Assay type: functional
`COc1cc(NC(C)CCCNC(=O)NC(C(=O)NC(c2ccccc2)c2ccccc2)c2ccc(Cl)cc2)c2ncccc2c1` (centres undefined) was tested, and the MIC was 6.5 µg/mL (≈ 10.2 µM). `COc1cc(NC(C)CCCNC(=O)NC(CC(C)C)C(=O)NC(c2ccccc2)c2ccccc2)c2ncccc2c1` (centres undefined) was tested, and the MIC was 6.5 µg/mL (≈ 11.2 µM).
